Laboratory results published in patent US20020115111A1, “Compounds” (SmithKline Beecham Corporation, priority 1994, published 2002).

Key:
[1] = test system: high affinity rolipram binding form of PDE IV (HPDE IV); assay: [3H]-rolipram binding assay (competition for high affinity site); design: species or system rat; conditions: for High/Low Ratio (IC50 high affinity form divided by IC50 low affinity form): HPDE IV IC50 / LPDE IV IC50; for IC50: competition with 1 nM [3H]-rolipram, 1 hour at 30° C.
Procedure: (§1) Inhibition of PDE IV catalytic activity can thus be used as an index of the potency of compounds at LPDE IV.
The assay was run for 1 hour at 30° C. The reaction was terminated and bound ligand was separated from free ligand using a Brandel cell harvester. Competition for the high affinity binding site was assessed under conditions that were identical to those used for measuring low affinity PDE activity, expect that [^3H]-cAMP was not present.

[2] = molecular target: T1, low affinity rolipram binding form of PDE IV (LPDE IV), human monocyte PDE IV (Homo sapiens, UniProt P27815); assay: PDE IV catalytic activity assay (low affinity form); type: biochemical; conditions: 1 μM [3H]cAMP as substrate
T1 construct: made in house; host or cells: yeast
T1 sequence (P27815 1-686 isoform P27815-3): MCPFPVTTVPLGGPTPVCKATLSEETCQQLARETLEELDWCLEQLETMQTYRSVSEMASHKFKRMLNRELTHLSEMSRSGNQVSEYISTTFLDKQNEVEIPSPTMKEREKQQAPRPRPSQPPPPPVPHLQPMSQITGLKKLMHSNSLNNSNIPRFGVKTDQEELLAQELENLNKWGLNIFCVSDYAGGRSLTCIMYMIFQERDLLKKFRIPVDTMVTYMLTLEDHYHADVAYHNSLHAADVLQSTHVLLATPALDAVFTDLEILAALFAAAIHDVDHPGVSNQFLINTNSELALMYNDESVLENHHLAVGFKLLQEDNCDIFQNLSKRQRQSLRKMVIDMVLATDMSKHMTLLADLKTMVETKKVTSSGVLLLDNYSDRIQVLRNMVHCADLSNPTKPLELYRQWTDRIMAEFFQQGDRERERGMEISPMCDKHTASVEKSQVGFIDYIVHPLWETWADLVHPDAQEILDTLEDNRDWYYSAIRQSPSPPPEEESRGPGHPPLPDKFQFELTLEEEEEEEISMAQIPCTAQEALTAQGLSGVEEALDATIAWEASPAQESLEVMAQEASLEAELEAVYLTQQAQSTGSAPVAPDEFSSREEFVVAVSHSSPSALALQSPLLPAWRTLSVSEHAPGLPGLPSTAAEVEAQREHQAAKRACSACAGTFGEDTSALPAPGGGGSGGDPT
Source text: as §1

[3] = clinical studies; cited from earlier work
acid secretion = conditions: rats, particularly in combination with an activator of adenylate cyclase such as histamine; cited from earlier work
[4] = test system: TNFα production from isolated human monocytes vs acid secretion in isolated rabbit parietal glands; assay: therapeutic index, in vitro comparison: suppression of TNFα production vs stimulation of acid secretion; type: cell-based
Procedure: To determine acid secretion, the gastric glands in combination with [^14C]-aminopyrine, various concentrations of selective PDE IV inhibitors, and a threshold concentration of histamine (0.3-1.0 μM) were incubated at 37° C. on a horizontal shaker (110 cycles/min) for 20 minutes according to the procedures of Sack and Spenney (1982). Samples were then centrifuged and radioactivity in aliquots of the supernatant fraction and pellet were determined. Aminopyrine ratios were calculated as described by Sack and Spenney (1982). The data were expressed as a percent of a response produced by a maximal concentration of histamine (100 μM). EC50 values were determined by linear interpolation using the maximum response obtained for each compound.
TNFα inhibition was assessed in human peripheral blood monocytes which were purified (Collata) from freshly obtained buffy coats or plasma-phoresis residues of blood from normal human donors. Monocytes were plated at density of 1×10^6 cells/ml medium/well in 24-well multi-dishes. […]
Levels of TNFα were measured using a ELISA (Winston) employing a murine monoclonal anti-human TNFα antibody (see below) as the capture antibody and a polyclonal rabbit anti-human TNFα as the second antibody. […] TNFα levels in samples were calculated from a standard curve generated with recombinant human TNFα produced in E. coli. […]

[5] = test system: [3H]-rolipram binding sites in rat brain homogenates; assay: high affinity [3H]-rolipram binding sites in rat brain homogenates (Schneider 1986); conditions: Kd vs Ki
Source text: In 1986, Schneider and colleagues described the presence and characteristics of high affinity, stereoselective [^3H]-rolipram binding sites in rat brain homogenates, Although it was assumed that these binding sites represented the catalytic site of the rat brain “noncalmodulin-dependent, cAMP phosphodiesterase” (i.e. PDE IV), a striking anomaly was apparent in the data.

Compound	High/Low Ratio (IC50 high affinity form divided by IC50 low affinity form) [1]	IC50 [1] [nM]	IC50 [2] [nM]	side effects [3]	effect on acid secretion (acid secretion)	improvement in therapeutic index in comparison with R-rolipram [4] [fold]	difference in affinity for the binding site versus effect on catalytic activity [5] [fold]
CCOC(=O)C=C1C[C@@H](c2ccc(OC)c(OC3CCCC3)c2)CN1 [(S)-(-)-ethyl[4-(3-cyclopentyloxy-4-methoxphenyl)pyrrolidine-2-ylidene]acetate]	.98	450	460	–	–	–	–
CC(C)Cn1c(=O)n(C)c(=O)c2[nH]cnc21 [IBMX, reference compound]	0.698	20300	29100	–	–	–	–
COc1cc2c(cc1OC)-c1c/c(=N\c3c(C)cc(C)cc3C)n(C)c(=O)n1CC2 [trequinsin, 2,3,6,7-tetrahydro-2-(mesitylimino)-9,10 dimethoxy-3-methyl-4H-primido[6,1-a]isoquinoline-4-one, reference compound]	–	5000	–	–	–	–	–
CCCCn1c(=O)c2c(ncn2CC(C)=O)n(CCCC)c1=O [denbufylline, 7-acetonyl,1,3-dibutylxanthine, reference compound]	–	50	–	may include pyrosis, nausea and emesis	–	–	–
COc1ccc(C2CN(Cc3ccc(N)cc3)C(=O)N2)cc1OC1CCCC1 (stereo not drawn) [1-(4-aminobenzyl)-4-(3-cyclopentyloxy-4-methoxyphenyl)-2-imidazolidinone]	0.07	10	1400	–	–	–	–
CCCCOc1cc(CC2CNC(=O)N2)ccc1OC (stereo not drawn) [Ro 20-1724]	–	–	–	–	enhance acid secretion in rats	–	–
COc1ccc(CCNC(=O)C(N)=O)cc1OC1CCCC1 [N-[2-(3-cyclopentyloxy-4-methoxyphenyl)ethyl]oxamide]	0.013	12	890	–	–	–	–
OCCN(CCO)c1nc(N2CCCCC2)c2nc(N(CCO)CCO)nc(N3CCCCC3)c2n1 [dipyridamole, 2,2′,2″,2′″-[(4,8-dipiperidinopyrimido[5,4-d]pyrimidine-2-6-diyl)dinitrilo]tetraethanol, reference compound]	6.25	32500	5200	–	–	–	–
COC(=O)C1CC(C#N)(c2ccc(OC(F)F)c(OCC3CC3)c2)CCC1=O (stereo not drawn) [2-carbomethoxy-4-cyano-4-(3-cyclopropylmethoxy-4-difluoromethoxyphenyl)cyclohexan-1-one]	3.571	500	140	–	–	100	–
COc1ccc(C2CCN(Cc3ccc(NC(=NC#N)SC)cc3)C2=O)cc1OC1CCCC1 (stereo not drawn) [3-(cyclopentyloxy-4-methoxyphenyl)-1-(4-N′-[N2-cyano-S-methyl-isothioureido]benzyl)-2-pyrrolidone]	0.30	30	100	–	–	–	–
COc1ccc(C2CNC(=O)C2)cc1OC1CCCC1 (stereo not drawn) [rolipram]	–	–	–	has psychotropic activity and produces gastrointestinal effects, e.g., pyrosis, nausea and emesis	enhance acid secretion in rats	–	1000
CCOC(=O)C=C1C[C@H](c2ccc(OC)c(OC3CCCC3)c2)CN1 [(R)-(+)-ethyl [4-(3-cyclopentyloxy-4-methoxyphenyl)pyrrolidine-2-ylidene]acetate]	2.143	300	140	–	–	–	–
COc1ccc([C@@H]2CC[C@H](C(=O)O)C2)cc1OC1CCCC1 (relative stereo) [cis-[3-(3-cyclopentyloxy-4-methoxyphenyl)cyclopentane-1-carboxylate]]	–	–	2700	–	–	–	–
COc1ccc(C2CCC(c3nnn[nH]3)C2)cc1OC1CCCC1 (stereo not drawn) [1-(5-tetrazole)-3-(3-cyclopentyloxy-4-methoxyphenyl)cyclopentane]	0.0018	2	1100	–	–	–	–
N#CC1(c2ccc(OC(F)F)c(OCC3CC3)c2)CCC(O)CC1 (stereo not drawn) [cis-[4-cyano-4-(3-cyclopropylmethoxy-4-difluoromethoxyphenyl)cyclohexan-1-ol]]	–	40	21	–	–	100	–
